Measured values published in article PMC10874388, “Cyclic peptides discriminate BCL-2 and its clinical mutants from BCL-XL by engaging a single-residue discrepancy” (Nature Communications, 2024).
Several values for one entry are separate records, joined by “and”; a condition that tells them apart may be missing. Identical values can stand only once.

How the values were obtained:
El4 cells = experiment: Cell viability assay (CellTiter-Glo), El4; type: cell-based; conditions: Mus musculus, 48 h treatment, NO = no inhibition detected
Protocol: (§1) The cell lines Jurkat (TIB-152), El4 (TIB-39), Daudi (ccl-213), RS4:11 (crl-1873), A549 (ccl-185), HepG2 (hb-8065) and PANC-1 (crl-1469) were purchased from ATCC (American Type Culture Collection), and MGC-803 (C6582) was purchased from Beyotime (https://www.beyotime.com/product/C6582.htm). […] Daudi and RS4:11 cells were cultured in RPMI-1640 medium (HyClone, SH30809.01) and 10% FBS (Gibco, 10099-141), whereas HepG2, MGC-803 and PANC-1 cells were cultured in MDEM (HyClone, SH30243.01). Cells were maintained at 37 °C under a humidified, 5% (v/v) CO2-containing atmosphere.
(§2) Cell viability was measured using CellTiter-Glo® 2.0 Reagent (Promega, G9242). […] After different inhibitors were added into serum-free medium and cultured for 4 h (RS4:11 for 6 h), FBS were supplemented to 10% and then incubated totally for 24 h or 48 h. Finally, the IC50 values were calculated based on measurements using a microplate reader (Thermo, Varioskan LUX). Statistical analysis was performed using software GraphPad Prism 7.0.

Jurkat cells = experiment: Apoptosis assay, Annexin V-FITC/PI staining and flow cytometry; type: cell-based
MGC-803 cells = experiment: Cell viability assay (CellTiter-Glo), MGC-803; type: cell-based; conditions: for inhibition rate: fraction; for inhibition rate / raw viability reading: replicates
Protocol: as §1, §2
(§3) Supplementary Figure 10 Functional mechanism of CPs. a. IC50 values of venetoclax against A549, MGC-803 and PANC-1 cells, measured after 48 h treatment by a CellTiter-Glo assay and calculated using Prism 7.0 by a nonlinear-fit method. Data are presented as mean ± s.d.; n= 6 biological replicates. b. […]
(§4) Glo assay. Each data point represents the mean ± s.d. for 6 biological replicates.
(§5) Supplementary Figure 11 IC50 values of different inhibitors against different cell lines. a-d. Viability of A549 (a), HepG2 (b), MGC-803 (c) and PANC-1 (d) cells treated with various concentrations of ABT-199 (venetoclax), and measured after 48 h by a CellTiter-Glo assay. e, f. Viability of Jurkat cells (e) and Daudi cells (f) treated with […]
(§6) after 48 h by a CellTiter-Glo assay. Each data point represents the mean ± s.d. for 6 biological replicates.
(§7) (1 picture or pasted object on this page, not shown here)

PANC-1 cells = experiment: Cell viability assay (CellTiter-Glo), PANC-1; type: cell-based; conditions: PNAC-1; for inhibition rate: fraction; for inhibition rate / raw viability reading: replicates
Protocol: as §1, §2, §3, §4, §5, §6, §7

[1] = molecular target: BCL-2 (chimeric human BCL-2); experiment: SPR binding assay, BCL-2; conditions: affinity fitting, mean ± SD of three independent experiments, 25 °C
Source text: The DNA fragments encoding human BCL-XL ([…], with […] removed), BCL-w (residues 6–152), MCL-1 (residues 152–308) and BFL-1 (residues 1–151) as previously reported[18] were cloned into a pET-22b vector (Invitrogen), respectively. A chimeric human BCL-2 (including residues 1–50 and 92–207) was constructed, by removing the internal long loop (residues 51–91) and replacing its residues 35–50 with residues 33–48 of BCL-XL to solubilize the protein[14], and then it was cloned into a pET28a-Sumo vector (Invitrogen). All BCL-2 mutants (G101V, F104L, Y103D, D111A) were generated by mutagenic PCR, according to the QuikChange (Stratagene) protocol.
SPR assays were performed using a Biacore T200 instrument in running buffer consisting 10 mM PBS, 50 μM EDTA and 0.05% Tween-20 at 25 °C. Biotinylated proteins were immobilized on a CAP sensor chip (Cytiva, 28920234). […] The binding affinities were quantified by the Biacore evaluation software using 1:1 binding model. The reproducibility of the assays was confirmed by performing replicate determinations.

CC1(C)CCC(CN2CCN(c3ccc(C(=O)NS(=O)(=O)c4ccc(NCC5CCOCC5)c([N+](=O)[O-])c4)c(Oc4cnc5[nH]ccc5c4)c3)CC2)=C(c2ccc(Cl)cc2)C1 [venetoclax]
IC50 (El4 cells): 1700 ± 200 nM
cell apoptosis(%) (Jurkat cells; Figure 6b, replicate values): 94.5% and 85.6%
Proportion of apoptotic cells (Jurkat cells; Jurkat, 24 h, 2.5 μM): 94.5%
average (raw viability reading) (MGC-803 cells; ABT199 0.3125 uM): 557867
inhibition rate (MGC-803 cells; ABT199 0.3125 uM): 0.2027 and 0.1767 and 0.1757 and 0.1522 and 0.1169 and 0.1408
raw viability reading (MGC-803 cells; ABT199 0.3125 uM): 548000 and 563600 and 587100 and 571200 and 530000 and 547300
average (raw viability reading) (MGC-803 cells; ABT199 0.625 uM): 500400
inhibition rate (MGC-803 cells; ABT199 0.625 uM): 0.2793 and 0.2709 and 0.2616 and 0.2533 and 0.2176 and 0.2009
raw viability reading (MGC-803 cells; ABT199 0.625 uM): 490900 and 496400 and 520100 and 531200 and 479100 and 484700
average (raw viability reading) (MGC-803 cells; ABT199 1.25 uM): 506350
inhibition rate (MGC-803 cells; ABT199 1.25 uM): 0.2765 and 0.2507 and 0.2473 and 0.2351 and 0.2002 and 0.2202
raw viability reading (MGC-803 cells; ABT199 1.25 uM): 500400 and 508500 and 531700 and 518400 and 481000 and 498100
average (raw viability reading) (MGC-803 cells; ABT199 2.5 uM): 356233
inhibition rate (MGC-803 cells; ABT199 2.5 uM): 0.4666 and 0.4612 and 0.464 and 0.4702 and 0.4562
raw viability reading (MGC-803 cells; ABT199 2.5 uM): 356300 and 352200 and 361500 and 354600 and 358200
average (raw viability reading) (MGC-803 cells; ABT199 5 uM): 295000
inhibition rate (MGC-803 cells; ABT199 5 uM): 0.6033 and 0.5602 and 0.5626 and 0.5469 and 0.5313 and 0.5332
raw viability reading (MGC-803 cells; ABT199 5 uM): 290800 and 301200 and 311600 and 310300 and 263700 and 292400
average (raw viability reading) (MGC-803 cells; ABT199 10 uM): 171300
inhibition rate (MGC-803 cells; ABT199 10 uM): 0.7623 and 0.7504 and 0.748 and 0.7419 and 0.7262 and 0.725
raw viability reading (MGC-803 cells; ABT199 10 uM): 167500 and 171600 and 182000 and 182800 and 158000 and 165900
average (raw viability reading) (MGC-803 cells; ABT199 20 uM): 77771.7
inhibition rate (MGC-803 cells; ABT199 20 uM): 0.8931 and 0.8865 and 0.8872 and 0.8828 and 0.8769 and 0.8715
raw viability reading (MGC-803 cells; ABT199 20 uM): 75000 and 77910 and 81820 and 85400 and 71050 and 75450
average (raw viability reading) (PANC-1 cells; ABT199 0.625 uM): 745567
inhibition rate (PANC-1 cells; ABT199 0.625 uM): -0.00675 and 0.06232 and 0.04686 and 0.01357 and 0.002949
raw viability reading (PANC-1 cells; ABT199 0.625 uM): 768100 and 715400 and 727200 and 752600 and 760700 and 749400
average (raw viability reading) (PANC-1 cells; ABT199 1.25 uM): 742283
inhibition rate (PANC-1 cells; ABT199 1.25 uM): 0.02549 and 0.03519 and 0.03296 and 0.02484 and -0.003211 and 0.04725
raw viability reading (PANC-1 cells; ABT199 1.25 uM): 743500 and 736100 and 737800 and 744000 and 765400 and 726900
average (raw viability reading) (PANC-1 cells; ABT199 2.5 uM): 777083
inhibition rate (PANC-1 cells; ABT199 2.5 uM): -0.04175 and 0.01278 and 0.00793 and -0.01999 and -0.04882 and -0.0213
raw viability reading (PANC-1 cells; ABT199 2.5 uM): 794800 and 753200 and 756900 and 778200 and 800200 and 779200
average (raw viability reading) (PANC-1 cells; ABT199 5 uM): 562150
inhibition rate (PANC-1 cells; ABT199 5 uM): 0.3097 and 0.2596 and 0.2661 and 0.2453 and 0.2389
raw viability reading (PANC-1 cells; ABT199 5 uM): 526700 and 564900 and 559900 and 575800 and 580700
average (raw viability reading) (PANC-1 cells; ABT199 10 uM): 446683
inhibition rate (PANC-1 cells; ABT199 10 uM): 0.4023 and 0.4323 and 0.4298 and 0.4149 and 0.4042 and 0.4036
raw viability reading (PANC-1 cells; ABT199 10 uM): 456000 and 433100 and 435000 and 446400 and 454600 and 455000
average (raw viability reading) (PANC-1 cells; ABT199 20 uM): 384133
inhibition rate (PANC-1 cells; ABT199 20 uM): 0.5271 and 0.5025 and 0.4945 and 0.4865 and 0.4715 and 0.4971
raw viability reading (PANC-1 cells; ABT199 20 uM): 360800 and 379600 and 385700 and 391800 and 403200 and 383700

O=C(c1cc(-c2cc3c(cc2C(=O)N2Cc4ccccc4C[C@H]2CN2CCOCC2)OCO3)n2c1CCCC2)N(c1ccccc1)c1ccc(O)cc1 [S55746]
Kd [1]: 6 ± 2 nM
